Test results from patent EP2880993A1, “Method of achieving memory and learning improvement by the administration of sialic acid” (ABBOTT LABORATORIES, priority 2013, dated 2015).
Entries after “also recorded” stand apart in the source; their conditions may differ.

Experiments:
[1] = system: hippocampal CA3-CAl areas; assay: Long-term potentiation (LTP) testing in vivo, Example 2; set-up: species or system Sprague-Dawley rat; conditions: 11 months old, FIG. 4; for persistence of LTP induction: after the second day, followed for up to 4 days; for fEPSP values / LTP response evoked after the HFS train, in words: compared with Control group (and NeuAc group)
Procedure: In order to establish the role of sialylated oligosaccharides in cognition, rat pups were supplemented with 6'-sialyllactose (6'-SL) from postnatal day 3 (PND3) and their learning and memory abilities were analyzed later in life. Rat performance in a classical spatial cognitive task (Y-maze), Novel object Recognition, protocol of spatial learning in the novel Intellicage® system, and Morris water maze were carried out once the animals reached 12 and 14 months of age. LTP response in hippocampus was also evaluated in vivo once the animals reached 11 months of age. The Y-maze, Object Recognition and the IntelliCage® allow the determination of spatial orientation and memory capabilities of experimental animals. The same female rats performed all the tests.
The pups from the second cohort were divided into three groups and given the following designations: the 6'-SL supplemented group, the NeuAc supplemented group and the control group. Initially, each group comprised 20 male pups. Due to premature deaths there were a total of 14 pups in the 6'-SL supplemented group at the end of the lactation. The 6'-SL supplemented group received 6'-SL supplementation (8 doses/day) in order to reach the same sialic acid levels as normally reared pups. The amount of 6'-SL given to the 6'-SL supplemented group was selected to follow the change in concentration of sialic acid in rat milk, ranging from 1.5 g/Kg body weight on day 3 to 0.5 g/Kg body weight at weaning. The maximum amount of sialic acid given to a pup was a maximum of 2 mg/Kg on day 8.
There were a total of 16 male pups in the NeuAc supplemented group at the end of lactation. The NeuAc supplemented group received NeuAc supplementation in order to reach the same sialic acid levels as normally reared pups. The amount of NeuAc given to the NeuAc supplemented group was selected to follow the change in concentration of sialic acid in rat milk, ranging from 1.5 g/Kg body weight on day 3 to 0.5 g/Kg body weight at weaning. The maximum amount of sialic acid given to any pup was 2 mg/Kg on day 8,
Long-term potentiation (LTP) measurements were performed in each of the three groups, i.e., the 6'-SL Supplemented Group, the NeuAc -Supplemented Group and the Control Group. The testing was done while the animals were alive and 11 months old, which is about age 40 in human years. Experiments were done in order to determine the functionality of hippocampus in vivo. […]
To evoke LTP, the following high frequency stimulation (HFS) protocol was used: each animal was subjected to five 200 Hz, 100 ms trains of pulses at a rate of l/s. […] After the HFS protocol, fEPSPs were recorded again for 30 minutes. […]
The HFS train is indicated by the downward arrow. […] The baseline was recorded at 15, 10, and 5 minutes before HFS.

rats [2] = assay: Y-maze testing, Example 2 (Acquisition Trial and Retention Trial); format: in vivo, Sprague-Dawley rat; conditions: 14 months old; for latency to blocked arm: Retention Trial 4 hours after Acquisition Trial, compared with Control group, FIG. 6; for percentage of animals visiting the previously blocked arm first: Retention Trial, compared with control animals, FIG. 7
Procedure: A Y-maze test was performed when the rats were 14 months old, which corresponds to 50-55 years old in humans. Eight rats in each group were tested. The Y-maze testing was performed in two phases: an Acquisition Trial and a Retention Trial. Rats in each group were evaluated in the Y-maze.
(§1) During the Acquisition Trial, one of the three arms of the Y-maze was blocked, and animals were allowed to explore the other two arms for 15 minutes. The Retention Trial took place 4 hours after the Acquisition Trial. During the Retention Trial, all three arms were open and animals were allowed to explore for 5 minutes. The amount of time each animal spent at the start of the Y-maze and each arm was evaluated.

rats [3] = assay: Intellicage testing, Example 2; format: in vivo, Sprague-Dawley rat; conditions: 14-15 months old, compared with Control group; for visits to the correct corner versus the incorrect corner (performance): FIG. 8
Procedure: IntelliCage® (NewBehavior AG) is a computer-based, fully automated testing apparatus used to analyze spontaneous and learned behavior. Eight rats in each group were tested. The rats were 14-15 months old, which corresponds to 55-60 years old for humans, when these tests were performed. Animals remain in the cage during several days and behavior is recorded during the entire testing period. Different paradigms can be tested by restricting water access to specific places and time periods. Each animal is assigned a corner where it can access water. Access to the water is only allowed during discrete time periods. Thus, each animal must learn when access to water bottles is allowed and which corner, out of four, has been assigned to it. Access to the corner is controlled by a door that opens only when the assigned rat enters its nose in a hole. […] Access to non-assigned corners remain blocked except during two 90 min periods during the night.

rats [4] = assay: Novel Object Recognition testing, Example 2; format: in vivo, Sprague-Dawley rat; conditions: 13 months old, retention test one day after acquisition phase, FIG. 5
Procedure: Perirhinal cortex and hippocampus are involved in the novel object recognition task. Novel Object Recognition Testing was performed when the rats were 13 months old, which corresponds to 45-50 years old for humans. Eight animals were tested.
During a habituation phase of the test, the rats were allowed to explore an "arena" for 20 minutes per day for 3 consecutive days. The arena was a black, open plastic chamber. Next, an acquisition phase took place wherein the animals interfaced with two different objects. These object are defined as "familiar." The rats were allowed to the arena while the familiar objects were present for 10 minutes. One day after the acquisition phase, a retention test was performed on the rats, wherein one of the familiar objects was replaced by a new object. The new object is defined as "novel." The rats were allowed to explore the arena for 5 minutes during the retention test. In theory, animals that remember familiar objects will spend more time exploring the novel object than the familiar one.

rats [5] = assay: Y-maze testing, Example 1 (Retention Trial and Memory Trial); format: in vivo, Sprague-Dawley rat; conditions: PND90
Procedure: In order to establish the role of free sialic acid in cognition, rat pups were supplemented with free N-Acetylneuraminic acid (Neu5Ac) from postnatal day 3 (PND3) and their learning and memory abilities were analyzed later in life. Rat performance in a classical spatial cognitive task (Y-maze) was evaluated once the animals […]. LTP response in hippocampus was also evaluated postnatal day 110 (PND110).
The pups from the second cohort were divided into two groups and given the following designations: the SIA-supplemented group and the Control group. Pups in the SIA - supplemented group were given milk containing low sialic acid, and received a supplementation of free sialic acid since the same day of transfer to the foster mothers until weaning. There were a total of 12 male pups in the SIA -supplemented group. The SIA -supplemented group received free sialic acid supplementation (8 doses/day) in order to reach the same free sialic acid levels as normally reared pups. The amount of free sialic acid given to the SIA-supplemented group was selected to follow the change in concentration of sialic acid in rat milk, ranging from 1.5 g/Kg body weight on day 3 to 0.5 g/Kg body weight at weaning. The amount of sialic acid given to any pup was a maximum of 1.8 mg/Kg body weight on day 8.
The Y-maze is a widely accepted method of testing spatial orientation and memory capabilities in rats. Ten rats in each group were evaluated in the Y-maze. At postnatal day 90 (PND90) for each group, the rats were subjected to a training trial (hereinafter, the "Training Trial"). The approximate equivalent in human years to 90 days of rat life is 10 to 20 years of age. At 5 minutes post training, rats in each group were tested again to test their retention (hereinafter, the "Retention Trial"). At 48 hours post training, rats in each group were tested again to test their memory, (hereinafter, the "Memory Trial").
as §1, with “Training” for “Acquisition”, “minutes.” for “minutes. The Retention Trial took place 4 hours after the Acquisition Trial.”, “Retention Trial and the Memory” for “Retention”
During the Memory Trial, performed 48 hours after the Training Trial, a long time spent at the start of the Y-maze denotes anxiety and neophobia. Conversely, the longer time an animal spent at the novel arm indicates an interest in novelty and apparent ability to recognize which arms they had visited previously.

[6] = system: hippocampal CA3-CAl areas; assay: Long-term potentiation (LTP) testing in vivo, Example 1; set-up: species or system Sprague-Dawley rat; conditions: PND110; for LTP response evoked by the stimulus, in words: compared with Control Group and Reference Group
Procedure: Long-term potentiation (LTP) measurements were performed in each of the three groups, i.e., the Control Group, the SIA-supplemented Group and the Reference Group. The testing was done while the animals were alive and at postnatal day 110 (PND110). Postnatal day 110 in rats equates to approximately 10 to 20 years of age in the lifespan of a human. Since hippocampus is a key brain structure related to LTP memory, experiments were done in order to determine the functionality of hippocampus in vivo. Long-term potentiation (LTP) is considered as the electrophysiological base of memory. In these experiments, a higher response indicates better memory potential.
The test was performed after implantation of electrodes in the hippocampal CA3-CAl areas of the rats in each group. There were seven rats per group. Each animal had 4 electrodes inserted and LTP measurements were taken from each electrode. Synaptic field potentials in the CAl area were evoked by paired (40 ms of interval) 100 µs, square, biphasic (negative-positive) pulse applied to Schaffer collaterals. For each animal, the stimulus intensity was set well below the threshold for evoking a population spike, usually 30-40% of the intensity necessary for evoking a maximum field excitatory postsynaptic potential ("fEPSP') response. An excitatory postsynaptic potential (EPSP) is a temporary depolarization of postsynaptic membrane potential caused by the flow of positively charged ions into the postsynaptic cell as a result of opening of ligand-gated ion channels.
To evoke LTP, the following high frequency stimulation (HFS) protocol was used: each animal was subjected to five 200 Hz, 100 ms trains of pulses at a rate of l/s. These trains were presented 6 times in total, at intervals of 1 minutes. After the HFS protocol, fEPSPs were recorded again for 30 minutes. Additional recordings were carried out for 15 minutes during the 3 following days.
FIG. 3 depicts the results of the Long-term Potentiation Testing. FIG. 3 illustrates the results of induction of LTP by the use of a high-frequency stimulation (HFS) protocol. Results correspond to the slope of the field excitatory postsynaptic potential ("fEPSP') evoked by a second electronic pulse (which took place 40 ms after a first pulse). Significant differences (p < 0.05) are indicated by the following signs: "*" indicates the differences between the SIA-supplemented Group and the Control Group; and "†" indicates the differences between the Reference Group and the Control Group. Average baseline fEPSP for each group was assigned the value of 100, and the rest of the fEPSP were referred to that value.

[7] = Memory Trial 48 hours post training, read from FIG. 2

Compound | persistence of LTP induction [1] | latency to blocked arm (rats [2]) | percentage of animals visiting the previously blocked arm first (rats [2]) | speed of learning (rats [3]) | visits to the correct corner versus the incorrect corner (performance) (rats [3]) | time spent exploring the novel object versus the familiar object (rats [4]; listed as NeuAc) | time spent in the novel arm (rats [5]; [7]) | time spent in the start arm (rats [5]; [7]) | Y-maze performance, in words (rats [5]; compared with Reference Group / non-supplemented control animals, listed as free sialic acid) | novel arm preference (percentage of animals that preferred the novel arm first) (rats [5]; Retention Trial 5 minutes post training, pups supplemented PND3 to weaning, read from FIG. 1) | persistence of LTP response ([6]; 72 hours post stimulus) | fEPSP slope after high-frequency stimulation ([6]; average baseline fEPSP assigned the value of 100, FIG. 3) | fEPSP slope forty-eight hours after high-frequency stimulation ([6]; baseline = 100, FIG. 3) | fEPSP slope seventy-two hours after high-frequency stimulation ([6]; baseline = 100, FIG. 3) | fEPSP slope twenty-four hours after high-frequency stimulation ([6]; baseline = 100, FIG. 3) | LTP response evoked by the stimulus, in words [6] | LTP response evoked by the stimulus, in words ([6]; listed as free sialic acid) | fEPSP values / LTP response evoked after the HFS train, in words [1] | fEPSP values / LTP response evoked after the HFS train, in words ([1]; listed as 6'SL) | time spent exploring the novel object versus the familiar object (rats [4])
CC(=O)N[C@H]1[C@H]([C@H](O)[C@H](O)CO)OC(O)(C(=O)O)C[C@@H]1O (stereo partly shown) [SIA, N-Acetylneuraminic acid] | remaining | lower values of latency to the blocked arm in comparison with Control group | significantly higher than that of the control animals | seemed to learn faster than the Control group | performed better compared to the Control group | significantly more time visiting the novel object than the familiar one; also recorded: distinguish better between the familiar and novel object | about 65 seconds | about 40 seconds | performed better and similarly to reference animals | about 57% | remained at high levels | about 220 | ~160 | ~140 | about 205 | strongest response | significantly higher LTP response levels than those of the control group |  |  | 
CC(=O)NC1C(O)CC(OCC2OC(OC3C(CO)OC(O)C(O)C3O)C(O)C(O)C2O)(C(=O)O)OC1C(O)C(O)CO (stereo not shown) [6'-SL, 6'-sialyllactose] | remaining; also recorded: remained at elevated levels even 4 days post stimulus | lower values of latency to the blocked arm in comparison with Control group | significantly higher than that of the control animals | seemed to learn faster than the Control group | performed better compared to the Control group |  |  |  |  |  |  |  |  |  |  |  |  | significantly larger | strongest response; also recorded: significantly higher LTP response levels than those of the control group | significantly more time visiting the novel object than the familiar one; also recorded: distinguish better between the familiar and novel object
